Experimental data: patent publication US5919631A, “Method of determining the degree of aggregation of the β-A4 peptide” (Hoechst Marion Roussel, Inc., priority 1996, dated 1999)
Like-named read-outs stand apart in the source and are kept apart here.

Target: β-amyloid (βA4) peptide (Homo sapiens, UniProt P05067)
Conditions: 37° C.; for percentage of increase of aggregation / percent decrease in aggregation of β-amyloid: 48 hours; for percent decrease in aggregation of β-amyloid: 25 μM β-amyloid
Method: β-amyloid (also known as (βA-4) peptide was dissolved in 100% dimethylsulfoxide (DMSO) at 10 mg/ml (or 2500 μM) concentration. The resultant solution was diluted to 1 mg/ml (or 250 μM) stock in Phosphate Buffered Saline (PBS), pH 7.4, just prior to setting up the assay and dispensed in individual sample wells of a Corning 96-well plate at 16 μl per well (i.e. a final concentration of 25 μM). All treatments were done in triplicate.
In this example, the candidate compound was added to the test wells at three different concentrations (250 μM, 500 μM and 1 mM). Total volume in each well was brought up to 160 μl with PBS. For untreated control wells, no compound was added to the β-amyloid peptide, and the total volume was made to 160 μl with PBS. The plates were sealed with parafilm and incubated at 37° C. for 48 hours.
(§1) At the end of the incubation period, the plates were taken out and 25 μl of Bio-Rad protein assay dye reagent (Bradford dye) was added to all the wells with samples. A standard curve was also set up at this time for estimation of fresh (also considered as unaggregared) peptide absorbance. The dye was mixed by pipeting and the plates quickly spun at 2500 rpm to remove bubbles.
The Absorbance was read at 595 nm in a Dynatech MR5000 plate reader 15 minutes after adding the dye.
The procedure of Example 1 was repeated except that hydrogen peroxide (10 μl of 30% stock) was added to the wells in a 96-well plate with 16 μl of the 1 mg/ml β-amyloid stock. The final volume was then brought up to 160 μl by adding 134 μl of PBS to these wells. The plate was sealed and incubated at 37° C. for 48 hours.
as §1, with “samples as in Example 1.” for “samples.”, “again used” for “also set up at this time”, “unaggregated)” for “unaggregared)”
The absorbance was read at 595 nm in the Dynatech MR5000 plate reader 15 minutes after adding the dye. The amount of aggregation was estimated by subtracting background and taking the difference between the fresh and hydrogen peroxide treated β-amyloid readings. The difference was expressed as percent over fresh or unaggregated peptide.

Sequence of β-amyloid (βA4) peptide (P05067 672-713 limits assumed): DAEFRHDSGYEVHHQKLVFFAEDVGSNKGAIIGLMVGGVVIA

For pentosan polysulfate, the “percentage of increase of aggregation” value (0.5 μM compound) was 40.8%, the “percentage of increase of aggregation” value (5 μM compound) was 57.1% and the “percentage of increase of aggregation” value (50 μM compound) was 62.9%.
`OO` [hydrogen peroxide] was tested, and the “percentage of aggregation (difference between fresh and treated β-amyloid, percent over fresh peptide)” value (10 μl of 30% stock in 160 μl, after 48 hrs) was 97.7%.
In the case of `CCCn1cnc2c1c(=O)n(CCCCC(C)=O)c(=O)n2C` [propentofylline, 1-(5'-oxohexyl)-3-methyl-7-propyl-2,6-(1H,3H)-purinedione], the “percent decrease in aggregation of β-amyloid” value (500 μM compound) is reported as 29.68% and the “percent decrease in aggregation of β-amyloid” value (1 mM compound) is reported as 37.4%.
